ChEMBL document CHEMBL1201862, “PubChem BioAssay data set” (2004)
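All cell lines were grown in 96-well plates and treated with compound for 48 hours. Abbreviation: GI50, concentration required for 50% inhibition of growth.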 Active and inactive are the calls of the source. Cut-off read from the data, not from the text of the source: active = GI50 up to about 1.1 µM and inactive = higher.

Key:
Test in all cases: NCI tumour cell line growth inhibition, 48 h
CAKI-1 = system: CAKI-1
HOP-92 = system: HOP-92
HT-29 = system: HT-29
Hs-578T = system: Hs-578T
LOX IMVI = system: LOX IMVI
M14 = system: M14
MCF7 = system: MCF7
MDA-MB-231 = system: MDA-MB-231
MDA-MB-435 = system: MDA-MB-435
MDA-N = system: MDA-N
MOLT-4 = system: MOLT-4
NCI/ADR-RES = system: NCI/ADR-RES
PC-3 = system: PC-3
SF-268 = system: SF-268
T47D = system: T47D

Measured: GI50

CC1=CC(C)C(C)N(CC2=NCCN2)c2ccccc21 (stereo not drawn)
inactive: CAKI-1 > 86.9 µM | HOP-92 11 µM | HT-29 18.7 µM | Hs-578T > 74.3 µM | LOX IMVI 38.1 µM | M14 17.8 µM | MCF7 53.7 µM | MDA-MB-231 32.9 µM | MDA-MB-435 46.5 µM | MDA-N 52.5 µM | MOLT-4 55 µM | NCI/ADR-RES 99.5 µM | PC-3 46.3 µM | SF-268 72.8 µM | T47D > 57.8 µM

c1ccc(CNc2ncnc3nn[nH]c23)cc1
inactive: CAKI-1 > 100 µM | HOP-92 56.8 µM | HT-29 > 100 µM | LOX IMVI > 100 µM | M14 > 100 µM | MCF7 > 100 µM | MDA-MB-231 > 100 µM | MDA-MB-435 > 100 µM | MDA-N > 100 µM | MOLT-4 > 100 µM | NCI/ADR-RES > 100 µM | PC-3 > 100 µM | T47D > 100 µM

Cn1c2ccc([N+](=O)[O-])cc2c(=O)n1Cc1ccccc1F
inactive: CAKI-1 99.3 µM | HOP-92 27.7 µM | HT-29 54.7 µM | Hs-578T 25.8 µM | LOX IMVI 31.9 µM | M14 25.4 µM | MCF7 > 100 µM | MDA-MB-231 34.2 µM | MDA-MB-435 74.3 µM | MDA-N 27.4 µM | MOLT-4 45.8 µM | NCI/ADR-RES 23 µM | PC-3 55.7 µM | SF-268 36.6 µM | T47D 19.4 µM

COC(=O)[C@H](Cc1ccccc1)NC(=O)N(CCNC(=O)OC(C)(C)C)c1ccccc1
inactive: CAKI-1 > 100 µM | HT-29 > 100 µM | Hs-578T > 100 µM | LOX IMVI > 100 µM | M14 > 100 µM | MCF7 > 100 µM | MDA-MB-231 > 100 µM | MDA-MB-435 > 100 µM | MDA-N > 100 µM | MOLT-4 > 100 µM | NCI/ADR-RES > 100 µM | PC-3 > 100 µM | SF-268 > 100 µM | T47D 51.4 µM

OC[C@H]1C[C@@H]2Cc3ccccc3N2N1
inactive: CAKI-1 > 100 µM | HOP-92 > 100 µM | HT-29 > 100 µM | Hs-578T > 100 µM | LOX IMVI > 100 µM | M14 > 100 µM | MDA-MB-231 > 100 µM | MDA-MB-435 > 100 µM | MDA-N > 100 µM | MOLT-4 > 100 µM | NCI/ADR-RES > 100 µM | PC-3 > 100 µM | SF-268 > 100 µM | T47D > 100 µM

CC1CC/C(=C\c2ccc(N(C)C)cc2)C2=C1C(c1ccc(N(C)C)cc1)NC(=S)N2 (stereo not drawn)
inactive: CAKI-1 > 100 µM | HT-29 > 100 µM | Hs-578T > 100 µM | LOX IMVI > 100 µM | M14 > 100 µM | MCF7 > 100 µM | MDA-MB-231 > 100 µM | MDA-MB-435 > 100 µM | MDA-N > 100 µM | MOLT-4 > 100 µM | NCI/ADR-RES > 100 µM | PC-3 40.3 µM | SF-268 > 100 µM | T47D > 100 µM

CN(CCO)Cc1ncccc1O
inactive: CAKI-1 > 100 µM | HOP-92 > 100 µM | HT-29 > 100 µM | Hs-578T > 100 µM | LOX IMVI > 100 µM | M14 > 100 µM | MCF7 > 100 µM | MDA-MB-231 > 100 µM | MDA-MB-435 > 100 µM | MOLT-4 25.5 µM | NCI/ADR-RES > 100 µM | PC-3 > 100 µM | SF-268 > 100 µM | T47D > 100 µM

CON(C)C(C#N)=C(C#N)C#N
inactive: CAKI-1 > 10 µM | HT-29 > 10 µM | Hs-578T > 10 µM | LOX IMVI > 10 µM | M14 > 10 µM | MCF7 > 10 µM | MDA-MB-231 > 10 µM | MDA-MB-435 > 10 µM | MDA-N > 10 µM | MOLT-4 > 10 µM | NCI/ADR-RES > 10 µM | PC-3 > 10 µM | SF-268 > 10 µM | T47D > 10 µM
